# Measured values from US20110201622A1, “Solid Forms Comprising A Cyclopropyl Amide Derivative” (priority 2010, published 2011).
# What was measured:
# [1] = Dynamic vapor sorption (DVS) analysis; format: physicochemical; details: about ambient temperature, about 0% RH to about 90% RH
# Procedure: Solid material obtained according to Example 5 was analyzed by DVS techniques. Isothermic DVS analysis was performed at about ambient temperature by increasing a sample of Form I of Compound I from about 0% RH to about 90% RH.
# DVS analysis is performed on samples prepared according to standard methods using standard equipment, e.g., a DVS instrument commercially available from Surface Measurement Systems, Ltd.™(Alperton, London, UK). Samples maintained at ambient temperature are cycled between about 0% RH and about 90% RH. Percent changes in mass are recorded, which are indicative of moisture sorption and desorption.
# [2] = Thermal gravimetric analysis (TGA); format: physicochemical
# Procedure: Solid material obtained according to the Example 5 was analyzed by thermal techniques.
smiles,measurement,setting,value
"C[C@@H]1CN(C2CCC2)CCN1C(=O)[C@H]1C[C@@H]1c1ccc(C(N)=O)cc1 [Form I of Compound I, 4-{(1S, 2S)-2-[((R)-4-cyclobutyl-2-methylpiperazin-1-yl)carbonyl]-cyclopropyl}-benzamide]",hygroscopicity (DVS analysis),[1],substantially nonhygroscopic
same,mass loss (TGA),[2]; upon heating from about 20° C. to about 100° C.,about 0.25%
same,further mass loss (TGA),[2]; upon heating from about 100° C. to about 160° C.,about 0.25%
